In US20090306098A1 (Cyclacel Limited, priority 2005, published 2009):

Key:
H460 cells [1] = assay: Calcusyn drug combination (Alamar blue) in H460 cells; assay type: cell-based; conditions: HDAC inhibitor combined with seliciclib
A549 cells = conditions: A549 (value in parentheses), combined with seliciclib
Description: Experiments were carried out in 96-well plates and the cell lines seeded at a density of 2000/well for A549 and 3000/well for H460. […] Each HDAC inhibitor was then tested in combination with seliciclib using three different treatment regimes: concomitant, seliciclib pre-treatment followed by HDAC inhibitor and HDAC inhibitor pretreatment followed by seliciclib.
The drug concentrations selected were chosen to span the IC50 values for the drugs tested. In the pre-treatment regimes, the first drug was added 2 h after cells were plated, and left for 24 h. Medium was aspirated and replaced with fresh medium containing the second drug, and incubated for 72 h. The two controls for each sequential treatment involved substituting one of the drug treatments with medium.
Seliciclib was tested in combination with the indicated HDAC inhibitors in H460 and A549 cell lines, using three different treatment regimes. […] Data are the average of at least three independent experiments (Table 1).

H460 cells [2] = conditions: H460, 1×IC50; medium 24 h then seliciclib 24 h; FIG. 6
[3] = HDAC inhibitor 24 h then seliciclib 72 h
[4] = seliciclib 24 h then HDAC inhibitor 72 h

| Compound | Combination Index at ED50, HDAC inhibitor pretreatment (H460 cells [1]; [3]) | Combination Index at ED75, HDAC inhibitor pretreatment (H460 cells [1]; [3]) | Combination Index at ED90, HDAC inhibitor pretreatment (H460 cells [1]; [3]) | Combination Index at ED50, Concomitant treatment (H460 cells [1]; both drugs 72 h) | Combination Index at ED75, Concomitant treatment (H460 cells [1]; both drugs 72 h) | Combination Index at ED90, Concomitant treatment (H460 cells [1]; both drugs 72 h) | Combination Index at ED50, Seliciclib pretreatment (H460 cells [1]; [4]) | Combination Index at ED75, Seliciclib pretreatment (H460 cells [1]; [4]) | Combination Index at ED90, Seliciclib pretreatment (H460 cells [1]; [4]) | Combination Index at ED50, HDAC inhibitor pretreatment (A549 cells; [3]) | Combination Index at ED75, HDAC inhibitor pretreatment (A549 cells; [3]) | Combination Index at ED90, HDAC inhibitor pretreatment (A549 cells; [3]) | Combination Index at ED50, Concomitant treatment (A549 cells; both drugs 72 h) | Combination Index at ED75, Concomitant treatment (A549 cells; both drugs 72 h) | Combination Index at ED90, Concomitant treatment (A549 cells; both drugs 72 h) | Combination Index at ED50, Seliciclib pretreatment (A549 cells; [4]) | Combination Index at ED75, Seliciclib pretreatment (A549 cells; [4]) | Combination Index at ED90, Seliciclib pretreatment (A549 cells; [4]) | overall cell cycle distribution (H460 cells [2]) |
| --- | --- | --- | --- | --- | --- | --- | --- | --- | --- | --- | --- | --- | --- | --- | --- | --- | --- | --- | --- |
| CCCC(=O)[O-].[Na+] [Butyrate, sodium butyrate] | 0.74 | 0.53 | 0.40 | 0.82 | 0.59 | 0.44 | 0.88 | 0.68 | 0.57 | 0.95 | 0.71 | 0.60 | 1.21 | 0.87 | 0.64 | 1.08 | 0.88 | 0.75 | – |
| CCCC(CCC)C(=O)[O-].[Na+] [Sodium valproate, sodium 2-propylpentanoate] | – | – | 0.84 | – | – | 1.07 | – | – | 0.81 | – | – | – | – | – | – | – | – | – | – |
| CC[C@H](CO)Nc1nc(NCc2ccccc2)c2ncn(C(C)C)c2n1 [seliciclib, 2-(1-R-hydroxymethylpropylamino)-6-benzylamino-9-isopropylpurine] | – | – | – | – | – | – | – | – | – | – | – | – | – | – | – | – | – | – | no significant impact |
